# Reference: ChEMBL document CHEMBL4665661, “Design, synthesis, and biological activity evaluation of (-)-6-O-desmethylantofine analogues as potent anti-cancer agents” (Bioorg Med Chem, 2019)
# Calls of active or inactive are those of the source. The rule behind the calls is not given here.
# How the values were obtained:
# [1] = system: Bel-7402; experiment: Antiproliferative activity against human Bel-7402 cells after 72 hrs by SRB assay; format: functional, cell-based; conditions: Bel-7402, 72 h
# [2] = system: K562; experiment: Antiproliferative activity against human K562 cells incubated for 72 hrs by MTT assay; format: functional, cell-based
# [3] = system: A549; experiment: Antiproliferative activity against human A549 cells incubated for 72 hrs by MTT assay; format: functional, cell-based
# [4] = system: MCF7; experiment: Antiproliferative activity against human MCF7 cells incubated for 72 hrs by MTT assay; format: functional, cell-based
# [5] = system: MDA-MB-157; experiment: Antiproliferative activity against human MDA-MB-157 cells incubated for 72 hrs by MTT assay; format: functional, cell-based
# [6] = system: MDA-MB-231; experiment: Antiproliferative activity against human MDA-MB-231 cells incubated for 72 hrs by MTT assay; format: functional, cell-based
# [7] = system: SK-BR-3; experiment: Antiproliferative activity against human SK-BR-3 cells incubated for 72 hrs by MTT assay; format: functional, cell-based
# [8] = system: BEL-7404 tumor cell line; experiment: Antiproliferative activity against human BEL-7404 cells incubated for 72 hrs by MTT assay; format: functional, cell-based
# [9] = system: HepG2; experiment: Antiproliferative activity against human HepG2 cells incubated for 72 hrs by MTT assay; format: functional, cell-based
# [10] = system: Hep 3B2; experiment: Antiproliferative activity against human Hep3B cells incubated for 72 hrs by MTT assay; format: functional, cell-based
# [11] = system: SK-HEP1; experiment: Antiproliferative activity against human SK-HEP 1 cells incubated for 72 hrs by MTT assay; format: functional, cell-based
# [12] = system: SMMC-7721; experiment: Antiproliferative activity against human SMMC-7721 cells incubated for 72 hrs by MTT assay; format: functional, cell-based
# [13] = system: BXPC-3; experiment: Antiproliferative activity against human BxPC-3 cells incubated for 72 hrs by MTT assay; format: functional, cell-based
# [14] = system: COLO 205; experiment: Antiproliferative activity against human COLO 205 cells incubated for 72 hrs by MTT assay; format: functional, cell-based
# [15] = system: HCT-116; experiment: Antiproliferative activity against human HCT-116 cells incubated for 72 hrs by MTT assay; format: functional, cell-based
# [16] = system: SU-DHL-6; experiment: Antiproliferative activity against human SU-DHL-6 cells incubated for 72 hrs by MTT assay; format: functional, cell-based
# [17] = system: Detroit 562; experiment: Antiproliferative activity against human Detroit 562 cells incubated for 72 hrs by MTT assay; format: functional, cell-based
# [18] = system: 786-0; experiment: Antiproliferative activity against human 786-0 cells incubated for 72 hrs by MTT assay; format: functional, cell-based
# [19] = system: PC-3; experiment: Antiproliferative activity against human PC-3 cells incubated for 72 hrs by MTT assay; format: functional, cell-based
# [20] = system: Bel-7402; experiment: Inhibition of colony formation in human Bel-7402 cells upto 1 uM incubated for 24 hrs measured after 12 days by 2D colony formation assay; format: functional, cell-based; conditions: time 12.0 day
# [21] = system: SMMC-7721; experiment: Cell cycle arrest in human SMMC-7721 cells assessed as inhibition of DNA synthesis by measuring increase in cell population at S phase at 20 to 200 nM after 24 hrs by RNase A/propidium iodide staining-based flow cytometric analysis; format: functional
# [22] = system: Zip177; experiment: Cell cycle arrest in human Zip177 cells assessed as inhibition of DNA synthesis by measuring increase in cell population at S phase at 20 to 200 nM after 24 hrs by RNase A/propidium iodide staining-based flow cytometric analysis; format: functional
# [23] = system: Bel-7402; experiment: Inhibition of DNA synthesis in human Bel-7402 cells assessed as Brdu positive cells at 0.01 uM measured after 1 hr by propidium iodide staining-based BrdU incorporation assay (reference value: 29.8%); format: functional; set-up: scale not given: the % may be the effect or the level left; conditions: time 30 min, 0.5 h
# [24] = system: Bel-7402; experiment: Induction of apoptosis in human Bel-7402 cells assessed as viable cells at 0.01 uM after 72 hrs by FITC-annexin V/propidium iodide-double staining based flow cytometry (reference value: 93.6%); format: functional; conditions: read-out: Activity
# [25] = system: Bel-7402; experiment: Induction of apoptosis in human Bel-7402 cells assessed as early apoptotic cells at 0.01 uM after 72 hrs by FITC-annexin V/propidium iodide-double staining based flow cytometry (reference value: 0.65%); format: functional
# [26] = system: Bel-7402; experiment: Induction of apoptosis in human Bel-7402 cells assessed as late apoptotic cells at 0.01 uM after 72 hrs by FITC-annexin V/propidium iodide-double staining based flow cytometry (reference value: 3.06%); format: functional
# [27] = system: Bel-7402; experiment: Induction of apoptosis in human Bel-7402 cells assessed as necrotic cells at 0.01 uM after 72 hrs by FITC-annexin V/propidium iodide-double staining based flow cytometry (reference value: 2.86%); format: functional
# [28] = system: Bel-7402; experiment: Induction of apoptosis in human Bel-7402 cells assessed as late apoptotic cells at 0.1 uM after 72 hrs by FITC-annexin V/propidium iodide-double staining based flow cytometry (reference value: 3.06%); format: functional
# [29] = system: Bel-7402; experiment: Induction of apoptosis in human Bel-7402 cells assessed as necrotic cells at 0.1 uM after 72 hrs by FITC-annexin V/propidium iodide-double staining based flow cytometry (reference value: 2.86%); format: functional
# [30] = system: Bel-7402; experiment: Induction of apoptosis in human Bel-7402 cells assessed as viable cells at 1 uM after 72 hrs by FITC-annexin V/propidium iodide-double staining based flow cytometry (reference value: 93.6%); format: functional; conditions: read-out: Activity
# [31] = system: Bel-7402; experiment: Induction of apoptosis in human Bel-7402 cells assessed as early apoptotic cells at 1 uM after 72 hrs by FITC-annexin V/propidium iodide-double staining based flow cytometry (reference value: 0.65%); format: functional
# [32] = system: Bel-7402; experiment: Induction of apoptosis in human Bel-7402 cells assessed as late apoptotic cells at 1 uM after 72 hrs by FITC-annexin V/propidium iodide-double staining based flow cytometry (reference value: 3.06%); format: functional
# [33] = system: Bel-7402; experiment: Induction of apoptosis in human Bel-7402 cells assessed as necrotic cells at 1 uM after 72 hrs by FITC-annexin V/propidium iodide-double staining based flow cytometry (reference value: 2.86%); format: functional
# [34] = system: K562/Adr; experiment: Antiproliferative activity against drug- resistant human K562/ADR cells; format: functional, cell-based
# [35] = system: KB; experiment: Antiproliferative activity against human KB cells; format: functional, cell-based
# [36] = system: Bel-7402; experiment: Cell cycle arrest in human Bel-7402 cells assessed as increase in cell population at S phase at 11 nM by RNase A/propidium iodide staining-based flow cytometric analysis (reference value: 26.3%); format: functional
# [37] = system: Bel-7402; experiment: Effect on DNA damage marker protein level in human Bel-7402 cells assessed as phosphor gamma H2AX at 100 fold antiproliferative IC50 after 1 hr by Western blot analysis; format: functional, cell-based
# [38] = system: Bel-7402; experiment: Effect on DNA damage marker protein level in human Bel-7402 cells assessed as phosphorylation of CHK2 at Thr68[…] at 100 fold antiproliferative IC50 after 1 hr by Western blot analysis; format: functional, cell-based
# [39] = system: Bel-7402; experiment: Induction of apoptosis in human Bel-7402 cells assessed as necrotic cells at 1 uM after 3 days by […]; format: functional; conditions: time 3 day
# [40] = system: KB; experiment: Cell cycle arrest in drug- resistant human KB/VCR cells assessed as inhibition of DNA synthesis by measuring increase in cell population at S phase at 1 to 10 nM upto 12 hrs by RNase A/propidium iodide staining-based flow cytometric analysis; format: functional; conditions: dose nM 1-10, time hrs <=12
# [41] = system: K562; experiment: Cell cycle arrest in human K562 cells assessed as inhibition of DNA synthesis by measuring increase in cell population at S phase at 1 to 100 nM upto 24 hrs by RNase A/propidium iodide staining-based flow cytometric analysis; format: functional; conditions: dose nM 1-100, time hrs <=24
smiles,measurement,setting,value
COc1cc2c3c(c4ccc(OCC#N)cc4c2cc1OC)CN1CCC[C@@H]1C3,IC50,[1],0.012 µM
same,inhibition,[2],Active
same,inhibition,[3],Active
same,inhibition,[4],Active
same,inhibition,[5],Active
same,inhibition,[6],Active
same,inhibition,[7],Active
same,inhibition,[8],Active
same,inhibition,[9],Active
same,inhibition,[10],Active
same,inhibition,[11],Active
same,inhibition,[12],Active
same,inhibition,[13],Active
same,inhibition,[14],Active
same,inhibition,[15],Active
same,inhibition,[16],Active
same,inhibition,[17],Active
same,inhibition,[18],Active
same,inhibition,[19],Active
same,inhibition,[20],Active
same,Activity,[21],Active
same,Activity,[22],Active
same,Activity,[23],26.9%
same,viability at 0.01 µM,[24],96.3%
same,Activity,[25],0.55%
same,Activity,[26],1.55%
same,Activity,[27],1.59%
same,Activity,[28],8.29%
same,Activity,[29],3.09%
same,viability at 1 µM,[30],79.2%
same,Activity,[31],1.6%
same,Activity,[32],15.5%
same,Activity,[33],3.73%
same,IC50,[34],0.0158 µM
same,IC50,[35],1.1 µM
same,Activity,[36],28.8%
same,Activity,[37],inactive
same,Activity,[38],inactive
same,Activity,[39],20%
same,Activity,[40],Active
same,Activity,[41],Active
